Common to all, as to type: cell-based
One test deals with T1, human TLR8 (Homo sapiens, UniProt Q9NR97).
T1 construct: host or cells: HEK-Blue cells
T1 sequence (Q9NR97 27-1041): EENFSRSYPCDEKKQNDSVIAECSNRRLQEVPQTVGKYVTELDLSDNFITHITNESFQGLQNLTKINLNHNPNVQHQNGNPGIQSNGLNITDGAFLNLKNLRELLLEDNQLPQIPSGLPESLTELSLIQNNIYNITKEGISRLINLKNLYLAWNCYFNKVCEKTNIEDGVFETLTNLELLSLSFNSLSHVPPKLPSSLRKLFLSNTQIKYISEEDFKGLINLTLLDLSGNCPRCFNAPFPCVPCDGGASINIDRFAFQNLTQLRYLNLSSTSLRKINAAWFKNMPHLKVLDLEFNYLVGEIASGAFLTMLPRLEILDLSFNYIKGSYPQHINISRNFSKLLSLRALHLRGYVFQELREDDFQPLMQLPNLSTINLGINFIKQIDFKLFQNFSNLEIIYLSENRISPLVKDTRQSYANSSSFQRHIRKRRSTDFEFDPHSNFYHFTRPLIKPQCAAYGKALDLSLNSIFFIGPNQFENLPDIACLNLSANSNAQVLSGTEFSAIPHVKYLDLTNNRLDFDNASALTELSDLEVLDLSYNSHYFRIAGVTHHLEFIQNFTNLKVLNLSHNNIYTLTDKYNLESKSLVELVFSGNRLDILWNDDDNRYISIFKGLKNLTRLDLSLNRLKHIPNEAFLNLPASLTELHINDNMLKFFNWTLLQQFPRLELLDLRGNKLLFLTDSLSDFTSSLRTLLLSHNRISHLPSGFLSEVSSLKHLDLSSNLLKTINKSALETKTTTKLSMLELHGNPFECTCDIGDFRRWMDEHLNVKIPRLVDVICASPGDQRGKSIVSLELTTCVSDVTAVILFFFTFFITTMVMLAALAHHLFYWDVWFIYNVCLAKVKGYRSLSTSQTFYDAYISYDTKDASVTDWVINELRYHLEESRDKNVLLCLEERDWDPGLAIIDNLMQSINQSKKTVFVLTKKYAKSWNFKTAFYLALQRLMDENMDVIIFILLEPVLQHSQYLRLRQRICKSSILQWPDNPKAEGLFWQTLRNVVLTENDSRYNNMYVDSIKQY
Briefly: TLR8 inhibition reporter assay (HEK-Blue cells, SEAP reporter, R848 stimulation). Particulars: HEK-Blue cells overexpressing human TLR8, SEAP reporter, R848 15.9 μM; read-out: TLR8 IC50. Put shortly: (§1)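 Screening used HEK-Blue cells overexpressing one human TLR (7, 8 or 9) and an IFN-β minimal promoter–NF-κB/AP-1 SEAP construct. Stimulation lasted 22 h at 37 °C with receptor-specific agonist: gardiquimod, R848 or ODN2006 at 7.5 μM, 15.9 μM and 5 nM.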

For another test, the target named is T2, human TLR7 (Homo sapiens, UniProt Q9NYK1).
T2 construct: host or cells: HEK-Blue cells
T2 sequence (Q9NYK1 27-1049): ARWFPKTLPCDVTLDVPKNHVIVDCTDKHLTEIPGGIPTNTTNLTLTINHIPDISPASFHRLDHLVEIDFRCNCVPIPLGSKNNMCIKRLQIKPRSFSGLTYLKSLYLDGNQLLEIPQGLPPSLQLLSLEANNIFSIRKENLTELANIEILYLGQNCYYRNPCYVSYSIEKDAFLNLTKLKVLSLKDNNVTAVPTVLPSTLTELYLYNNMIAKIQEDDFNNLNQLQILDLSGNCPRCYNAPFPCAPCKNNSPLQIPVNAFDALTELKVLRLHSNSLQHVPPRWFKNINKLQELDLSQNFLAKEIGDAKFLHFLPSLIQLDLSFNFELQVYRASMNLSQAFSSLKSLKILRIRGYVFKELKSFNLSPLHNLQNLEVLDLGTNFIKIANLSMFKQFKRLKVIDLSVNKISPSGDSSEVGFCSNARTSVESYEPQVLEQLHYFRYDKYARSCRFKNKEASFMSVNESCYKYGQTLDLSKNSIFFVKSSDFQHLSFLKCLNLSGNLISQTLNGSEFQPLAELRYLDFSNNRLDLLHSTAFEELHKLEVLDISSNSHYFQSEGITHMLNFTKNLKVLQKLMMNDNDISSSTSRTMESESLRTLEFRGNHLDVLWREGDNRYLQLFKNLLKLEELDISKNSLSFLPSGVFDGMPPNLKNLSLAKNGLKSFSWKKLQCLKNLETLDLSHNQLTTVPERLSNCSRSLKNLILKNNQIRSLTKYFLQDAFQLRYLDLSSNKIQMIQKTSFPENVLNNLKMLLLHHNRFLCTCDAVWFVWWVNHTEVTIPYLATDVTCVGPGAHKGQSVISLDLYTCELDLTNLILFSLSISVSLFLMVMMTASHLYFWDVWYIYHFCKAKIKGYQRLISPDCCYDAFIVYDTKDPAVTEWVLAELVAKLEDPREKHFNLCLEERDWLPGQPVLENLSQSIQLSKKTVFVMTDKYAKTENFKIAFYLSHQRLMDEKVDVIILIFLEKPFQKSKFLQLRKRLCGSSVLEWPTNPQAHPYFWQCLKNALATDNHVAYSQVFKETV
Briefly: TLR7 inhibition reporter assay (HEK-Blue cells, SEAP reporter, gardiquimod stimulation). The conditions noted are these: HEK-Blue cells overexpressing human TLR7, SEAP reporter, gardiquimod 7.5 μM; read-out: TLR7 IC50. In short, it runs like this:
as §1
On the technique in general: Reporter assays use an easily measured gene product as a stand-in for the process of interest.

In a further test the target is T3, human TLR9 (Homo sapiens, UniProt Q9NR96).
T3 construct: host or cells: HEK-Blue cells
T3 sequence (Q9NR96 26-1032): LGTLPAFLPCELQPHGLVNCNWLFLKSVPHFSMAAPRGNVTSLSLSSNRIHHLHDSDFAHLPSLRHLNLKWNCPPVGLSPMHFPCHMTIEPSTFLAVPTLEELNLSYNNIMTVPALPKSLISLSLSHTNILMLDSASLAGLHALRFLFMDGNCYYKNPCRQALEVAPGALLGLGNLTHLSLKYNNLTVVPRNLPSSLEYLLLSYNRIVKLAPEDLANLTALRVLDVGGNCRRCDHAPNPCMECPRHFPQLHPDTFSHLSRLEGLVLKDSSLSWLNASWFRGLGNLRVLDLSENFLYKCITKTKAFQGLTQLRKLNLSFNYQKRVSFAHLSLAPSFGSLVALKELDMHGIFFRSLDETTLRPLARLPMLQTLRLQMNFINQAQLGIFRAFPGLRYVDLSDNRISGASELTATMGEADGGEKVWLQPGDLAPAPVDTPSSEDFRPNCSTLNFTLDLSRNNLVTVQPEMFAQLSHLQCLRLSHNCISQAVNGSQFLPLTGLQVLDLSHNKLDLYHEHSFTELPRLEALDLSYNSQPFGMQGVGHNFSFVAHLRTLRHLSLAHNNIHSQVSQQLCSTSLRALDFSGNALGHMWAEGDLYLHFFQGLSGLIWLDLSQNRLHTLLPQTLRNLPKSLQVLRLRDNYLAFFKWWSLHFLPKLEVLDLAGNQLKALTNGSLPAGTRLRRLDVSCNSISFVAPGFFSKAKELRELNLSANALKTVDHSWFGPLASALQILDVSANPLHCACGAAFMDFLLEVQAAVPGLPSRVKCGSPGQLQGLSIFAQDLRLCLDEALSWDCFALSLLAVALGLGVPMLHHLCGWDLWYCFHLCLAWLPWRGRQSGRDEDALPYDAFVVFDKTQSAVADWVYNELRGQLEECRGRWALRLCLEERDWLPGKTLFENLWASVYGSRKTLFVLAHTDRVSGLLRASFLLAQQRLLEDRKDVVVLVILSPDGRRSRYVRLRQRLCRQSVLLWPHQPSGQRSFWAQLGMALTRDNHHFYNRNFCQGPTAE
Nature of the test: TLR9 inhibition reporter assay (HEK-Blue cells, SEAP reporter, ODN2006 stimulation). The conditions noted are these: HEK-Blue cells overexpressing human TLR9, SEAP reporter, ODN2006 5 nM. Put shortly:
as §1

Structures are written as SMILES.

What is called IC50 is the concentration needed to halve the response being measured. Regarding `Cc1cc2ncnn2cc1-c1[nH]c2sc(C3CCC(N4CCCC4)CC3)nc2c1C(C)C` (single isomer, unassigned) [Example 154, 6-isopropyl-5-(7-methyl-[1,2,4]triazolo[1,5-a]pyridin-6-yl)-2-(4-(pyrrolidin-1-yl)cyclohexyl)-4H-pyrrolo[3,2-d]thiazole], the IC50 on human TLR8 came out at 3.33 nM; at human TLR7 it was 11.9 nM; against human TLR9, 9310 nM.

For the molecule `Cc1cc2ncnn2cc1-c1[nH]c2sc(C3CCC(N4CCCC4)CC3)nc2c1C(C)C` (single isomer, unassigned) [Example 155, 6-isopropyl-5-(7-methyl-[1,2,4]triazolo[1,5-a]pyridin-6-yl)-2-(4-(pyrrolidin-1-yl)cyclohexyl)-4H-pyrrolo[3,2-d]thiazole], the IC50 on human TLR8 was 21.5 nM; at human TLR7, 41.5 nM; against human TLR9, > 50000 nM.

For `Cc1cc2ncnn2cc1-c1[nH]c2sc(C3CCC(NCC(C)(C)O)CC3)nc2c1C(C)C` (single isomer, unassigned) [Example 156, 1-((4-(6-isopropyl-5-(7-methyl-[1,2,4]triazolo[1,5-a]pyridin-6-yl)-4H-pyrrolo[3,2-d]thiazol-2-yl)cyclohexyl)amino)-2-methylpropan-2-ol], the results for the IC50 on human TLR8, at human TLR7 and at human TLR9 were 0.09 nM, 1.72 nM and 10900 nM, respectively.

For the molecule `Cc1cc2ncnn2cc1-c1[nH]c2sc(C3CCC(NCC(C)(C)O)CC3)nc2c1C(C)C` (single isomer, unassigned) [Example 157, 1-((4-(6-isopropyl-5-(7-methyl-[1,2,4]triazolo[1,5-a]pyridin-6-yl)-4H-pyrrolo[3,2-d]thiazol-2-yl)cyclohexyl)amino)-2-methylpropan-2-ol], the IC50 on human TLR8 amounted to 11.9 nM; at human TLR7, 37.4 nM; at human TLR9, 16400 nM.

Take `Cc1cc2ncnn2cc1-c1[nH]c2sc(C3CCC(N(C)C(C)C)CC3)nc2c1C(C)C` (single isomer, unassigned) [Example 158, N-isopropyl-4-(6-isopropyl-5-(7-methyl-[1,2,4]triazolo[1,5-a]pyridin-6-yl)-4H-pyrrolo[3,2-d]thiazol-2-yl)-N-methylcyclohexan-1-amine]: the figures for the IC50 at human TLR8, at human TLR7 and against human TLR9 were 31 nM, 8.95 nM and 14300 nM, respectively.

For the molecule `Cc1cc2ncnn2cc1-c1[nH]c2sc(C3CCC(N(C)C(C)C)CC3)nc2c1C(C)C` (single isomer, unassigned) [Example 159, N-isopropyl-4-(6-isopropyl-5-(7-methyl-[1,2,4]triazolo[1,5-a]pyridin-6-yl)-4H-pyrrolo[3,2-d]thiazol-2-yl)-N-methylcyclohexan-1-amine], the IC50 on human TLR8 is 4.78 nM; on human TLR7 it was 8.79 nM; at human TLR9, 6870 nM.

As for `Cc1cc2ncnn2cc1-c1[nH]c2sc(C3CCC(NC4CCOCC4)CC3)nc2c1C(C)C` (single isomer, unassigned) [Example 160, N-(4-(6-isopropyl-5-(7-methyl-[1,2,4]triazolo[1,5-a]pyridin-6-yl)-4H-pyrrolo[3,2-d]thiazol-2-yl)cyclohexyl) tetrahydro-2H-pyran-4-amine], the results for the IC50 at human TLR8, at human TLR7 and against human TLR9 were 0.06 nM, 0.61 nM and 5300 nM, respectively.

With `Cc1cc2ncnn2cc1-c1[nH]c2sc(C3CCC(NC4CCOCC4)CC3)nc2c1C(C)C` (single isomer, unassigned) [Example 161, N-(4-(6-isopropyl-5-(7-methyl-[1,2,4]triazolo[1,5-a]pyridin-6-yl)-4H-pyrrolo[3,2-d]thiazol-2-yl)cyclohexyl) tetrahydro-2H-pyran-4-amine], the half-maximal inhibitory concentration (IC50) is 14.7 nM on human TLR8, 18.1 nM on human TLR7 and 17000 nM against human TLR9.

For `COc1cc(-c2[nH]c3sc(C4CCC(N(C)CC(=O)N(C)C)CC4)nc3c2C(C)C)cn2ncnc12` (single isomer, unassigned) [Example 162, 2-((4-(6-isopropyl-5-(8-methoxy-[1,2,4]triazolo[1,5-a]pyridin-6-yl)-4H-pyrrolo[3,2-d]thiazol-2-yl)cyclohexyl)(methyl)amino)-N,N-dimethylacetamide], the results for the concentration for half-maximal inhibition (IC50) on human TLR8, at human TLR7 and against human TLR9 were 15.7 nM, 2.6 nM and 20300 nM, respectively.

For `COc1cc(-c2[nH]c3sc(C4CCC(N(C)CC(=O)N(C)C)CC4)nc3c2C(C)C)cn2ncnc12` (single isomer, unassigned) [Example 163, 2-((4-(6-isopropyl-5-(8-methoxy-[1,2,4]triazolo[1,5-a]pyridin-6-yl)-4H-pyrrolo[3,2-d]thiazol-2-yl)cyclohexyl)(methyl)amino)-N,N-dimethylacetamide], the IC50 is 20.6 nM at human TLR8, 1.59 nM on human TLR7 and 9400 nM against human TLR9.

Source of the values: patent publication US20230139171A1 (SITA Information Networking Computing UK Limited, priority 2019, published 2023).
